Measured values published in patent US20220356147A1, “COMPOUNDS AND METHODS FOR POTENTIATING COLISTIN ACTIVITY” (University of Notre Dame du Lac, priority 2019, published 2022).
Like-named read-outs stand apart in the source and are kept apart here.

Key:
AB 4112 = experiment: Colistin potentiation, colistin-resistant isolate panel; assay type: cell-based, A. baumannii; settings: compound at 5 μM
AB 4106 [1] = experiment: Broth microdilution, standalone MIC of compound; assay type: cell-based, A. baumannii; settings: read-out: MIC of compound alone, AB 4106
Experimental: Broth microdilution method for the determination of minimum inhibitory concentrations: Bacteria were cultured for 4 to 6 hours in CAMHB and subcultured to 1.04×10^6 CFU/mL for AB 4106 and 1.96×10^6 CFU/mL for KP B9 in fresh CAMHB. To aliquots (1 mL) was added compound from stock solutions in DMSO, such that the compound concentration equaled the highest concentration tested. Samples were then dispensed (200 μL) into the first row of a 96-well microtiter plate in which all but the final row of subsequent wells were prefilled with 100 μL of the untreated bacterial subculture. The final row was filled with media to act as a sterility control and blank. Row one wells were mixed 6-7 times, then, 100 μL was withdrawn and transferred to row two. Row two wells were mixed 6-7 times followed by a 100 μL transfer from row two to row three. This procedure was used to serially dilute the rest of the rows of the microtiter plate, excluding the last prefilled row, which was used to measure growth in the absence of compound. Plates were then sealed with GLAD Press'n Seal and incubated under stationary conditions at 37 C. […] MIC values were determined as the minimum concentration required to achieve 90% growth inhibition compared to growth in untreated wells.

AB 3942 = experiment: Colistin potentiation, colistin-resistant isolate panel; assay type: cell-based, A. baumannii; settings: compound at 5 μM
4T1 cells = experiment: Cell line toxicity (MTT); assay type: cell-based
Experimental: Cell line Toxicity: 4T1 cells (ATCC Manassas, Va.) were plated at a density of 1×10^4 cells/well in 96-well plates in Roswell Park Memorial Institute Media 1640 (RPMI)
(Gibco, Gaithersburg, MD) supplemented with 10% Fetal Bovine Serum (Gibco), 2 mM GlutaMAX (Gibco) and 50 μM 2-mercaptoethanol (Sigma Aldrich, St. Louis, Mo.) and incubated at 37 C under a 5% CO2 atmosphere in the dark for 18 h. Cell cultures were treated with serial dilutions of compounds in the presence or absence of 1 μg/mL colistin (3 replicates per condition) and incubated for an additional 18 hours. The following control conditions were used: media only (blank), 1% Triton X100 (0% cell viability), 0.5% DMSO (100% cell viability). Each condition was then treated with 10% volume of a 5 mg/mL solution of 3-(4,5-dimethylthiazol-2-yl)-2,5-diphenyltetrazolium bromide (MTT) (Sigma Aldrich) in sterile filtered 1X phosphate buffered saline (PBS) and incubated for 2 h. at 37 C in 5% CO2, after which the media was aspirated and the resulting formazan crystals were resuspended in 100 μL acidified (4 mM HCl) isopropanol. The 96-well plate was then read at 540 nm on a FLUOstar Optima (BMG Labtech Cary, NC) microplate reader. Cell viability was calculated as a percentage using the two previously mentioned controls.

[2] = tested on: A. baumannii 4106 (AB4106); experiment: Broth microdilution, colistin potentiation; assay type: cell-based
Experimental: (§1) Broth microdilution method for measurement of colistin potentiation: Bacteria were cultured for 4 to 6 hours in CAMHB and diluted to 1.04×10^6 CFU/mL for AB 4106 and 1.96×10^6 CFU/mL for KP B9 in fresh CAMHB. To aliquots (4 mL) was added compound from stock solutions in DMSO. One aliquot was not dosed to allow measurement of the colistin MIC in the absence of compound. A 1 mL aliquot of each sample was dosed with colistin, and from this 200 μL was dispensed into the first row of a 96-well microtiter plate in which all but the final row of subsequent wells was prefilled with 100 μL of the corresponding compound dosed bacterial suspension The final row was filled with media to act as a sterility control and blank. Row one wells were mixed 6-7 times, then, 100 μL was withdrawn and transferred to row two. Row two wells were mixed 6-7 times followed by a 100 μL transfer from row two to row three. This procedure was used to serially dilute the rest of the rows of the microtiter plate, excluding the last prefilled row, which was used to measure growth in the presence of compound alone. Plates were then sealed with GLAD
(§2) Press'n Seal and incubated under stationary conditions at 37° C. […] MIC values were determined as the minimum concentration required to achieve 90% growth inhibition compared to growth in untreated wells.

AB 17978 mcr-1 = experiment: Colistin potentiation, colistin-resistant isolate panel; assay type: cell-based, A. baumannii; settings: compound at 5 μM
K. pneumoniae B9 (KPB9) = experiment: Broth microdilution, colistin potentiation; assay type: cell-based; settings: for ability to break colistin resistance, KPB9: compound at 500 nM
Experimental: as §1, §2

AB 3941 = experiment: Colistin potentiation, colistin-resistant isolate panel; assay type: cell-based, A. baumannii; settings: compound at 5 μM
AB 4119 = experiment: as above; assay type: cell-based, A. baumannii; settings: compound at 5 μM
KP B9 = experiment: Time-kill curves with colistin; assay type: cell-based, K. pneumoniae; settings: 5 μM compound + 0.5, 4 or 32 μg/mL colistin, FIG. 2
Experimental: (§3) Time—kill Curves: Strains were cultured overnight in CAMHB and subcultured to 1.04×10^6 CFU/mL for AB 4106 and 1.96×10^6 CFU/mL for KP B9 in fresh CAMHB. The subculture was then transferred to culture tubes in 3 mL aliquots, which were dosed with adjuvant, colistin, or adjuvant plus colistin. One aliquot was not dosed to serve as a control. All samples were then incubated at 37 C with shaking. At 2, 4, 6, 8, and 24-hour time points, 100 μL was taken from each sample and ten-fold diluted in CAMHB up to 7 times. 100 μL of diluted culture was plated on LB (Lennox) agar and incubated at 37 C overnight. The total number of bacterial colonies on each plate was determined using a SphereFlash colony counter (NEUTEC Group Inc.).

AB 4106 [3] = experiment: Time-kill curves with colistin; assay type: cell-based, A. baumannii; settings: 5 μM compound + 0.5, 4 or 32 μg/mL colistin, FIG. 1
Experimental: as §3

[4] = tested on: A. baumannii, K. pneumoniae, and Escherichia coli; experiment: Earlier finding: suppression of colistin resistance by IMD-0354; assay type: cell-based; settings: 5 μM (1.9 μg/mL) IMD-0354
AB4106 and KPB9 = experiment: Initial screen for colistin resistance suppression, statements in words for both strains; assay type: cell-based, A. baumannii and K. pneumoniae; settings: compound at 5 μM
Experimental: as §1, §2

[5] = Acinetobacter baumannii, 16 h, standalone, no colistin
[6] = compound at 5 μM, colistin alone 2048 μg/mL

| Compound | Colistin MIC fold reduction, AB 4112 (AB 4112) | MIC (AB 4106 [1]; [5]) | Colistin MIC fold reduction, AB 3942 (AB 3942) | no measurable toxicity up to (4T1 cells; mouse, 18 h) | Colistin MIC fold reduction, AB 4106 ([2]; compound at 1 μM) | Colistin MIC fold reduction, AB 4106 ([2]; compound at 3 μM) | Colistin MIC fold reduction, AB 4106 [2, 6] | Colistin MIC fold reduction, AB 17978 mcr-1 (AB 17978 mcr-1) | ability to break colistin resistance, KPB9 (K. pneumoniae B9 (KPB9)) | Colistin MIC fold reduction, AB 3941 (AB 3941) | Colistin MIC fold reduction, AB 4119 (AB 4119) | further results |
| --- | --- | --- | --- | --- | --- | --- | --- | --- | --- | --- | --- | --- |
| O=C(Nc1cc(Br)cc(Br)c1)c1cc(Cl)ccc1O [Compound 23] | (1024) fold | > 200 µM | (≥2048) fold | > 200 µM | 256 fold | 1024 fold | 1024 fold | (128) fold | retained the ability to break colistin resistance | (512) fold | (1024) fold |  |
| O=C(Nc1cc(F)cc(F)c1)c1cc(Cl)ccc1O [Compound 21] |  | > 200 µM |  |  | 64 fold | 512 fold | 1024 fold |  |  |  |  | CT50 (cytotoxicity) (4T1 cells; mouse, 18 h): 210 µM; toxicity compared to IMD-0354 (4T1 cells; mouse, 18 h): comparable toxicity to IMD-0354 |
| O=C(Nc1cc(Cl)cc(Cl)c1)c1cc(Cl)ccc1O [Compound 22] |  | > 200 µM |  | > 200 µM | 512 fold | 1024 fold | 1024 fold |  |  |  |  | Time-kill: potentiation of colistin activity (KP B9): significant potentiation of colistin activity; Time-kill: potentiation of colistin activity (AB 4106 [3]): significant potentiation of colistin activity |
| O=C(Nc1cc(C(F)(F)F)cc(C(F)(F)F)c1)c1cc(Cl)ccc1O [IMD-0354, reference compound] | (1024) fold |  | (≥2048) fold |  | 256 fold | 512 fold | 1024 fold | (128) fold |  | (512) fold | (256) fold | MIC (AB 4106 [1]; Acinetobacter baumannii, 16 h): 50 µM; reduction of the MIC of colistin [4]: ≥ 4096 fold |
| O=C(Nc1cc(C(F)(F)F)cc(C(F)(F)F)c1Cl)c1cc(Cl)ccc1O [Compound 25] |  |  |  |  | 512 fold | 1024 fold | 2048 fold |  |  |  |  | Colistin MIC against AB 4112 (AB 4112): 1 µg/mL; MIC (AB 4106 [1]; standalone, no colistin): 50 µM; Colistin MIC against AB 3942 (AB 3942): 1 µg/mL; toxicity compared to IMD-0354 (4T1 cells; 4T1 cells, MTT): ca. two-fold more toxic than IMD-0354; CT50 (cytotoxicity) (4T1 cells; 4T1 cells, MTT, 18 hours): 110 µM; Colistin MIC against AB 4106 ([2]; in presence of compound at 1 μM): 4 µg/mL; Colistin MIC against AB 4106 ([2]; in presence of compound at 3 μM): 2 µg/mL; Colistin MIC against AB 4106 ([2]; in presence of compound at 5 μM): 1 µg/mL; Colistin MIC against AB 17978 mcr-1 (AB 17978 mcr-1): 0.5 µg/mL; Colistin MIC against AB 3941 (AB 3941): 1 µg/mL; Colistin MIC against AB 4119 (AB 4119): 1 µg/mL |
| O=C(Nc1ccc(C(F)(F)F)cc1)c1cc(Cl)ccc1O [Compound 26] |  | > 200 µM |  | > 200 µM | 128 fold | 1024 fold | 2048 fold |  |  |  |  | Colistin potentiation activity in words, compared to IMD-0354 (AB4106 and KPB9): activity equivalent to IMD-0354 |
| O=C(Nc1cc(Br)cc(Br)c1)c1cc(I)ccc1O [Compound 52, N-(3,5-dibromophenyl)-2-hydroxy-5-iodobenzamide] | (2048) fold | > 200 µM | (≥4096) fold |  | 256 fold | 1024 fold | 2048 fold | (256) fold | retained the ability to break colistin resistance | (1024) fold | (512) fold |  |
| O=C(Nc1ccc(C(F)(F)F)c(F)c1)c1cc(Cl)ccc1O [Compound 29, 5-chloro-N-(3-fluoro-4-(trifluoromethyl)phenyl)-2-hydroxybenzamide] | (2048) fold | > 200 µM | (≥4096) fold |  | 512 fold | 1024 fold | 2048 fold | (512) fold | retained the ability to break colistin resistance | (1024) fold | (512) fold | Colistin potentiation activity in words, compared to IMD-0354 (AB4106 and KPB9): activity equivalent to IMD-0354; colistin MIC relative to breakpoint levels, KPB9 (K. pneumoniae B9 (KPB9); compound at 250 nM, breakpoint 2 μg/mL): reduced the colistin MIC below breakpoint levels |
